# Measurements published in US8450318B2 (priority 2007, dated 2013).
# Where two headings read alike, the source gives them in different places.
# How the values were obtained:
# Influenza A H1N1 subtype = test: Anti-influenza activity in MDCK cells, Influenza A H1N1; format: cell-based; conditions: for EC50 Influenza A H1N1 subtype MTS: cell viability, formazan-based MTS assay; for EC50 Influenza A H1N1 subtype visual CPE score: visual scoring of the CPE; for EC50: reference compounds
# Text: (§1) MDCK cells (Madin Darby canine kidney cells) have been used for the experiments shown in table 5 using standard procedures known in the art.
# Influenza A H3N2 subtype = test: Anti-influenza activity in MDCK cells, Influenza A H3N2; format: cell-based; conditions: for EC50 Influenza A H3N2 subtype MTS: cell viability, formazan-based MTS assay; for EC50 Influenza A H3N2 subtype visual CPE score: visual scoring of the CPE; for EC50: reference compounds
# Text: as §1
# Influenza B = test: Anti-influenza activity in MDCK cells, Influenza B; format: cell-based; conditions: for EC50 Influenza B MTS: cell viability, formazan-based MTS assay; for EC50 Influenza B visual CPE score: visual scoring of the CPE; for EC50: reference compounds
# Feline Corona virus = test: Activity on feline corona virus in CRFK cells; format: cell-based
# [1] = test system: human corona (SARS) virus; test: microbe, parasite or virus in culture; format: cell-based; conditions: for Human Corona virus EC50: human corona (SARS) virus
# HIV-1 [2] = test system: HIV-1
# CRFK cells [3] = conditions: cytotoxicity, feline corona virus test
# CRFK cells [4] = conditions: cytotoxicity, human corona virus test
# HIV-2 = test: Antiretrovirus assay, HIV-2
# in vitro = conditions: human, CEM cells
# HIV-1 [5] = test: microbe, parasite or virus in culture; conditions: Human immunodeficiency virus 1, CCRF-CEM, read-out: EC50 HIV-1
# CEM cells = test: Cytostatic/cytotoxic activity, inhibition of CEM cell proliferation; conditions: Table 1; for CC50: 50% cytostatic concentration, CEM cell proliferation
# Sindbis virus = test: Antiviral activity, Sindbis virus; format: cell-based; conditions: Table 3, reference compounds
# Coxsackie virus B4 = test: microbe, parasite or virus in culture; format: cell-based; conditions: Table 3, reference compounds
# Punta Toro virus = test: Antiviral activity, Punta Toro virus; format: cell-based; conditions: Table 3, reference compounds
# [6] = test system: Herpes simplex virus-1 (KOS); test: Antiviral activity, Herpes simplex virus-1 (KOS); format: cell-based; conditions: Human alphaherpesvirus 1; Table 4, reference compounds
# [7] = test system: Herpes simples virus-2 (G); test: Antiviral activity, Herpes simplex virus-2 (G); format: cell-based; conditions: Human alphaherpesvirus 2; Table 4, reference compounds
# Vaccinia virus = test: microbe, parasite or virus in culture; format: cell-based; conditions: Orthopoxvirus vaccinia, read-out: EC50 Vaccinia virus
# [8] = test system: Vesicular stomatitis virus; test: microbe, parasite or virus in culture; format: cell-based; conditions: read-out: EC50 Vesicular stomatitis virus
# [9] = test system: Herpes simplex virus-1 TK KOS-ACV^r; test: Antiviral activity, Herpes simplex virus-1 TK KOS-ACVr; format: cell-based; conditions: Human alphaherpesvirus 1, read-out: EC50 Herpes simplex virus-1 TK KOS-ACV^r
# [10] = Table 1, CEM cells, prevention of syncytium formation by 50%, 4 to 5 days
compound,measurement,setting,value
CCc1c(CN)c(CC)c(CNc2cc(C)cc(C)n2)c(CC)c1CNc1cc(C)cc(C)n1.Cl [Co28],EC50 Influenza A H1N1 subtype MTS,Influenza A H1N1 subtype,>0.8 µg/mL
same,EC50 Influenza A H1N1 subtype visual CPE score,Influenza A H1N1 subtype,>0.8 µg/mL
same,EC50 Influenza A H3N2 subtype MTS,Influenza A H3N2 subtype,>0.8 µg/mL
same,EC50 Influenza A H3N2 subtype visual CPE score,Influenza A H3N2 subtype,>0.8 µg/mL
same,EC50 Influenza B MTS,Influenza B,>0.8 µg/mL
same,EC50 Influenza B visual CPE score,Influenza B,>0.8 µg/mL
"CCC(CC)O[C@@H]1C=C(C(=O)O)C[C@H](N)[C@H]1NC(C)=O [Oseltamivir caboxylate, reference compound]",EC50,"Influenza A H1N1 subtype; MTS, read-out: EC50 Influenza A H1N1 subtype MTS",3 nM
same,EC50,"Influenza A H1N1 subtype; visual CPE, read-out: EC50 Influenza A H1N1 subtype visual CPE score",4 nM
same,EC50,"Influenza A H3N2 subtype; MTS, read-out: EC50 Influenza A H3N2 subtype MTS",1600 nM
same,EC50,"Influenza A H3N2 subtype; visual CPE, read-out: EC50 Influenza A H3N2 subtype visual CPE score",1800 nM
same,EC50,"Influenza B; MTS, read-out: EC50 Influenza B MTS",2600 nM
same,EC50,"Influenza B; visual CPE, read-out: EC50 Influenza B visual CPE score",4000 nM
CCc1c(CNCC2COCCOCCOCCOCCO2)c(CC)c(CNc2cc(C)cc(C)n2)c(CC)c1CNc1cc(C)cc(C)n1 (stereo not drawn) [Co12],Feline Corona virus EC50,Feline Corona virus,1.4 ± 0.2 µg/mL
same,Human Corona virus EC50,[1],1.9 ± 0.6 µg/mL
same,EC50 HIV-1,HIV-1 [2]; Table 1a,1.35 ± 0.29 µg/mL
same,Feline Corona virus CC50,CRFK cells [3],11 ± 0 µg/mL
same,Human Corona virus CC50,CRFK cells [4],13 ± 1.2 µg/mL
same,EC50 HIV-2,HIV-2; Table 1a,>4 µg/mL
"CCc1c(CNc2cc(C)cc(C)n2)c(CC)c(CNc2cc(C)cc(C)n2)c(CC)c1CNc1cc(C)cc(C)n1 [Compound 3b, 1,3,5-Tris[(4,6-dimethyl-pyridin-2-yl)aminomethyl]-2,4,6-triethyl-benzene]",EC50,Feline Corona virus,1.1 ± 0.6 µg/mL
same,EC50,"[1]; Severe acute respiratory syndrome coronavirus, read-out: Human Corona virus EC50",8.6 ± 4.9 µg/mL
same,melting point,,183 to 185 °C
same,CC50,in vitro,2.87 ± 0.23 µg/mL
same,EC50,"HIV-2; Human immunodeficiency virus 2, read-out: EC50 HIV-2",> 0.8 µg/mL
same,EC50,HIV-1 [5],> 0.8 µg/mL
Cc1cccc(NC(=O)c2cc(C(=O)Nc3cccc(C)n3)cc(C(=O)Nc3cccc(C)n3)c2)n1 [Compound 30],EC50 HIV-1,HIV-1 [2]; [10],>20 µg/mL
same,EC50 HIV-2,HIV-2; Table 1,>20 µg/mL
same,cytotoxicity (in words),CEM cells,low cytotoxicity
same,CC50,CEM cells,>100 µg/mL
CCc1c(CC#N)c(CC)c(CNc2cc(C)cc(C)n2)c(CC)c1CNc1cc(C)cc(C)n1 [Co19],Feline Corona virus EC50,Feline Corona virus,>4 µg/mL
same,EC50 HIV-1,HIV-1 [2]; Table 1a,>2 µg/mL
same,Feline Corona virus CC50,CRFK cells [3],10.8 µg/mL
same,EC50 HIV-2,HIV-2; Table 1a,>2 µg/mL
CCOC(=O)CNc1cccc(NCc2c(CC)c(CNc3cccc(C)n3)c(CC)c(CNc3cccc(C)n3)c2CC)n1 [AH29],Feline Corona virus EC50,Feline Corona virus,>4 µg/mL
same,Feline Corona virus CC50,CRFK cells [3],13.3 µg/mL
Cc1ccc2ccc(NCc3c(C)c(CNc4ccc5ccc(C)nc5n4)c(C)c(CNc4ccc5ccc(C)nc5n4)c3C)nc2n1 [Compound 24],Feline Corona virus EC50,Feline Corona virus,42 ± 0 µg/mL
same,Human Corona virus EC50,[1],38 ± 1 µg/mL
same,Feline Corona virus CC50,CRFK cells [3],>100 µg/mL
same,Human Corona virus CC50,CRFK cells [4],>100 µg/mL
CC(=NO)c1cccc(NCc2c(C)c(CNc3cccc(C(C)=NO)c3)c(C)c(CNc3cccc(C(C)=NO)c3)c2C)c1 [Compound 27],EC50 HIV-1,HIV-1 [2]; [10],>4 µg/mL
same,EC50 HIV-2,HIV-2; Table 1,>4 µg/mL
same,CC50,CEM cells,20.4 ± 11.4 µg/mL
Nc1ncnc2c1ncn2C[C@H](O)CO [(S)-DHPA],EC50,Sindbis virus,> 250000 nM
same,EC50,Coxsackie virus B4,> 250000 nM
same,EC50,Punta Toro virus,> 250000 nM
Nc1nc(O)c2ncn(COC(CO)CO)c2n1 [Ganciclovir],EC50,[6],6.4 nM
same,EC50,[7],32 nM
same,EC50,Vaccinia virus,100000 nM
same,EC50,[8],> 150000 nM
same,EC50,[9],12000 nM
CCc1c(CNc2cccc(C)n2)c(CC)c(CNc2cccc(NC(=O)Cc3ccccc3)n2)c(CC)c1CNc1cccc(C)n1 [AH30],EC50 Influenza A H1N1 subtype MTS,Influenza A H1N1 subtype,>4 µg/mL
same,EC50 Influenza A H1N1 subtype visual CPE score,Influenza A H1N1 subtype,>4 µg/mL
same,EC50 Influenza A H3N2 subtype MTS,Influenza A H3N2 subtype,>4 µg/mL
same,EC50 Influenza A H3N2 subtype visual CPE score,Influenza A H3N2 subtype,>4 µg/mL
same,EC50 Influenza B MTS,Influenza B,>4 µg/mL
same,EC50 Influenza B visual CPE score,Influenza B,>4 µg/mL
Nc1nc2c(ncn2COCCO)c(=O)[nH]1 [Acyclovir],EC50,[6],400 nM
same,EC50,[7],80 nM
same,EC50,Vaccinia virus,> 250000 nM
same,EC50,[8],> 250000 nM
same,EC50,[9],150000 nM
